Earlier results, collected in patent publication US20220370613A1, “PHARMACEUTICAL COMPOSITION” (Renown Pharma Inc., priority 2019, published 2022).

How the values were obtained:
[1] = test system: "on-off" fluctuations in Parkinson's disease; conditions: subcutaneous injection
"switched on" response = conditions: sublingual administration

pKa: 8.9
Structure (SMILES): CN1CCc2cccc3c2[C@H]1Cc1ccc(O)c(O)c1-3 [apomorphine]
duration of effect [1]: 45 to 90 min
time to effect [1]: 5 to 15 min
mean time to onset of effect ("switched on" response): approximately 30 minutes
